According to PMC8131319, “The molecular basis of spectral tuning in blue- and red-shifted flavin-binding fluorescent proteins” (The Journal of Biological Chemistry, 2021):

Tests used:
Experiment in all cases: X-ray crystallography
Assay type in all cases: binding
[1] = biological target: T1, CagFbFP (Chloroflexus aggregans, UniProt B8GAY9, I52T/C85A); conditions: pH 5.5; noncovalent; structure virtually identical to parental CagFbFP
T1 construct: gene Cagg_3753; LOV domain from residue 47 (about 47-153), C-terminal His-tag, expressed in E. coli from pET11, homodimer
T1 sequence (B8GAY9 entry or part of it I52T/C85A): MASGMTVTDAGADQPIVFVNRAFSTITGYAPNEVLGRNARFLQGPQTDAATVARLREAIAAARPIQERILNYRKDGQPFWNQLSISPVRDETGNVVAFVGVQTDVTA

[2] = biological target: T2, CagFbFP (Chloroflexus aggregans, UniProt B8GAY9, C85A/Q148K); conditions: 1.36 Å; pH 6.5; noncovalent; morpholine fragment near FMN; second structure 6YX6
T2 construct: gene Cagg_3753; LOV domain from residue 47 (about 47-153), C-terminal His-tag, expressed in E. coli from pET11, homodimer
T2 sequence (B8GAY9 entry or part of it C85A/Q148K): as the sequence (B8GAY9 entry or part of it I52T/C85A) above, with T6I, Q102K counted along it

[3] = biological target: T3, iLOV (Arabidopsis thaliana, UniProt P93025, S394T/S409G/C426A/I452T/F470L/M475V/Q489K); conditions: 1.45 Å; space group P4_32_12; pH 4.6; noncovalent; acetate ion near FMN-N5
T3 construct: gene PHOT2; improved LOV2 domain (about residues 387-496 of phot2), expressed in E. coli from pET28a, His-tag (IMAC), monomer about 10 kDa
T3 sequence (P93025 387-496 S394T/S409G/C426A/I452T/F470L/M475V/Q489K limits assumed): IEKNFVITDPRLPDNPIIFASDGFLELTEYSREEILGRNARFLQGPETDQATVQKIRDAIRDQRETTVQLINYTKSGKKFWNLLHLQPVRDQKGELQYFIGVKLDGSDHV

[4] = biological target: T4, CagFbFP (Chloroflexus aggregans, UniProt B8GAY9, I52T/C85A/Q148K); conditions: 1.8 Å; space group P2_12_12; pH 5.0; noncovalent
T4 construct: gene Cagg_3753; LOV domain from residue 47 (about 47-153), C-terminal His-tag, expressed in E. coli from pET11, homodimer
T4 sequence (B8GAY9 entry or part of it I52T/C85A/Q148K): as the sequence (B8GAY9 entry or part of it I52T/C85A) above, with Q102K counted along it

Cc1cc2nc3c(=O)[nH]c(=O)nc-3n(C[C@H](O)[C@H](O)[C@H](O)COP(=O)(O)O)c2cc1C [FMN] was tested. Which X-ray crystallography [1] did it give?
Its X-ray crystallography is “X-ray structure of CagFbFP-I52T”.

And the X-ray crystallography [2]?
Its X-ray crystallography is “side chain of the introduced lysine is facing away from FMN”.

And the X-ray crystallography [3]?
The X-ray crystallography was “hydrogen bond network to FMN and N468”.

And the X-ray crystallography [4]?
Its X-ray crystallography is “structure of CagFbFP–I52T–Q148K with hydrogen bonds between K148, T52, and the FMN”.
